Structures can show the parent of a compound that is named as a salt.
Legend:
NPY2 receptors = molecular target: T1, NPY2 receptors (Homo sapiens, UniProt P49146); assay: Neuropeptide Y receptor binding assay (125I-PYY, KAN-TS cell membranes); conditions: 10 μM compound; for inhibition at 10 µM: read-out: NPY-2@10, % Inh
T1 construct: Cell Membranes from KAN-TS cells having NPY2 receptors; endogenous in cells; host or cells: KAN-TS cells (membranes)
T1 sequence (P49146 1-381): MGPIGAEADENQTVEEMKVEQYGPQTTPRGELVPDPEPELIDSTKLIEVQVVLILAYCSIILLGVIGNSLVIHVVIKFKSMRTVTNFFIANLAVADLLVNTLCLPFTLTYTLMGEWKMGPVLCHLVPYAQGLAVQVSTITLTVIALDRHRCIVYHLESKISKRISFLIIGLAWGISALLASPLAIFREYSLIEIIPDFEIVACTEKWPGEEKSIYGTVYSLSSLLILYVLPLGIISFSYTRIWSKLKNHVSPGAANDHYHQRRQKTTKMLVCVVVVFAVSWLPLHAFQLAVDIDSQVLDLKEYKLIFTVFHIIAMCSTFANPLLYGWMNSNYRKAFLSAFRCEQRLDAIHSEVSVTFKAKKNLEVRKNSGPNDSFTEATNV
Procedure, shortened: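 Membranes from KAN-TS cells competed with 125I-PYY in binding buffer containing BSA, test compound at 10 μM final, 1 hr at room temperature. Nonspecific binding defined with 1 μM PYY final. Tubes centrifuged, washed with PBS and bound radioactivity gamma-counted.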

human V1b receptor = molecular target: T2, human V1b receptor (Homo sapiens, UniProt P47901); assay: V1b binding assay (3H-AVP displacement, HEK-293 membranes); parameters: expressed in transfected cells; host or cells: HEK-293 (membranes); conditions: for inhibition at 10 µM: read-out: V1b % Inh @10
T2 sequence (P47901 1-424): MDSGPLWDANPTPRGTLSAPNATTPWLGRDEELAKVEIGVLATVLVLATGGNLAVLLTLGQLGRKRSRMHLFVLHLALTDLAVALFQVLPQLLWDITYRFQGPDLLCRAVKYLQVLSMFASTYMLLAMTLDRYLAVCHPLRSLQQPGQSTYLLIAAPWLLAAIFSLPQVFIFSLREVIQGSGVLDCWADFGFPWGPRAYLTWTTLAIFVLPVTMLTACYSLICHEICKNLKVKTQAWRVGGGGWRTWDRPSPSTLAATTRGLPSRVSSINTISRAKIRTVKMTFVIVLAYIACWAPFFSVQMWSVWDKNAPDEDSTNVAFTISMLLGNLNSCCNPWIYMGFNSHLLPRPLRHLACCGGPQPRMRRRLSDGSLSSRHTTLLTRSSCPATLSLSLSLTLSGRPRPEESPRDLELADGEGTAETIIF
Procedure, shortened: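 Each well: membranes, test compound (from 10% DMSO working stock), 3H-AVP. Buffer pH 7.5 with 0.1% BSA and protease inhibitors; 1 h, room temperature. Non-specific binding: 1.25 μM AVP. Filter, wash, count.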

Row | Compound | inhibition at 10 µM (NPY2 receptors) | IC50 (human V1b receptor) | inhibition at 10 µM (human V1b receptor; 10 μM compound) | NPY-2@10, % Inh (NPY2 receptors) | V1b % Inh @10 (human V1b receptor; 10 μM compound) | inhibition at 1 µM (human V1b receptor; 1.0 μM compound, read-out: V1b@1.0, % Inh)
1 | 1-[(N1-Piperidinocarbothioyl-(1-L-carboxymethyl-2-phenylamino)-4-yl]-3-(3-aminopropyl)-1,3-dihydrobenzimidazol-2-one Hydrochloride [Compound 57] | – | – | – | 20% | 25%@10 | –
2 | CCN(CC)CCn1c(=O)n(C2CCN(C(=S)NC(Cc3ccccc3)C(=O)OC)CC2)c2ccccc21 [Compound 42, 1-(N1-Piperidinocarbothioyl-(2-phenyl-1-L-carboxymethyl)amino-4-yl)-3-(2-diethyaminoethyl)-1,3-dihydrobenzimidazol-2-one] | 10% | – | 37% | – | – | –
3 | CCN(CC)CCn1c(=O)n(C2CCN(C(=S)NC(c3ccccc3)c3ccccc3)CC2)c2ccccc21 [Compound 35, 1-(N1-Piperidinocarbothioyldiphenylmethylamino-4-yl)-3-(2-diethyaminoethyl)-1,3-dihydrobenzimidazol-2-one] | 74% | – | – | – | – | 47%

Further lines, results first:

Row | inhibition at 10 µM (NPY2 receptors) | IC50 (human V1b receptor) | inhibition at 10 µM (human V1b receptor; 10 μM compound) | NPY-2@10, % Inh (NPY2 receptors) | V1b % Inh @10 (human V1b receptor; 10 μM compound) | inhibition at 1 µM (human V1b receptor; 1.0 μM compound, read-out: V1b@1.0, % Inh) | Compound
4 | 90% | 4.1 µM | 62% | – | – | – | N=C(N)NCCCn1c(=O)n(C2CCN(C(=S)NC(c3ccccc3)c3ccccc3)CC2)c2ccccc21 [Compound 59, 1-[(N1-Piperidinocarbothioyldiphenylmethylamino)-4-yl]-3-(3-guanidinopropyl)-1,3-dihydrobenzimidazol-2-one]
5 | 82% | 5.1 µM | – | – | – | – | NCCCn1c(=O)n(C2CCN(C(=S)NC(c3ccccc3)c3ccccc3)CC2)c2ccccc21 [Compound 55, 1-[(N1-Piperidinocarbothioyldiphenylmethylamino)-4-yl]-3-(3-aminopropyl)-1,3-dihydrobenzimidazol-2-one Monohydrochloride]

— patent US6653478B2, “Substituted benzimidazol-2-ones as vasopressin receptor antagonists and neuropeptide Y modulators” (Ortho-McNeil Pharmaceutical, Inc., priority 2000, dated 2003)
